Values after ≈ are worked out from the molar mass of the structure shown.
Tests used:
Test in all cases: in vitro antibacterial evaluation, MIC by broth dilution
Format in all cases: cell-based
Enterococcus sp. = conditions: broth dilution, 18 hours at 35° C.
Method in brief: (§1)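 Broth dilution per NCCLS M7-A2 in Mueller-Hinton II medium, inoculum 5×10^5 CFU/mL, antibiotic range 64-0.06 μg/mL. MIC taken as lowest concentration inhibiting growth; Gram-positive panel includes recent clinical isolates resistant to methicillin, penicillin and/or vancomycin.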

Escherichia coli = conditions: 18 hours at 35° C.
Method in brief: as §1

Staphylococcus sp. = conditions: broth dilution, 18 hours at 35° C.
Method in brief: as §1

Streptococcus sp. = conditions: broth dilution, 18 hours at 35° C.
Method in brief: as §1

MIC Enterococcus avium (GC 4558) (Enterococcus sp.; Enterococcus avium (GC 4558)): 4 µg/mL (≈ 2.82 µM) | MIC Enterococcus faecalis (ATCC 29212) (Enterococcus sp.; Enterococcus faecalis (ATCC 29212)): 8 µg/mL (≈ 5.64 µM) | MIC Enterococcus faecalis (GC 2242) (Enterococcus sp.; Enterococcus faecalis (GC 2242)): 4 µg/mL (≈ 2.82 µM) | MIC Enterococcus faecalis (GC 2691) (Enterococcus sp.; Enterococcus faecalis (GC 2691)): 4 µg/mL (≈ 2.82 µM) | MIC Enterococcus faecalis (GC 3059) (Enterococcus sp.; Enterococcus faecalis (GC 3059)): 8 µg/mL (≈ 5.64 µM) | MIC Enterococcus faecalis (GC 4552) (Enterococcus sp.; Enterococcus faecalis (GC 4552)): 4 µg/mL (≈ 2.82 µM) | MIC Enterococcus faecalis (GC 4553) (Enterococcus sp.; Enterococcus faecalis (GC 4553)): 4 µg/mL (≈ 2.82 µM) | MIC Enterococcus faecalis (GC 4554) (Enterococcus sp.; Enterococcus faecalis (GC 4554)): 8 µg/mL (≈ 5.64 µM) | MIC Enterococcus faecalis (GC 6189) (Enterococcus sp.; Enterococcus faecalis (GC 6189)): 4 µg/mL (≈ 2.82 µM) | MIC Enterococcus faecium (GC 2243) (Enterococcus sp.; Enterococcus faecium (GC 2243)): 4 µg/mL (≈ 2.82 µM) | MIC Enterococcus faecium (GC 4556) (Enterococcus sp.; Enterococcus faecium (GC 4556)): 8 µg/mL (≈ 5.64 µM) | MIC Enterococcus faecium (GC 4557) (Enterococcus sp.; Enterococcus faecium (GC 4557)): 2 µg/mL (≈ 1.41 µM) | MIC Enterococcus faecalis (ATCC 29212) (Enterococcus sp.; strain ATCC 29212): 8 µg/mL (≈ 5.64 µM) | MIC Enterococcus faecalis (GC 2242) (Enterococcus sp.; strain GC 2242): 4 µg/mL (≈ 2.82 µM) | MIC Enterococcus faecium (GC 2243) (Enterococcus sp.; strain GC 2243): 4 µg/mL (≈ 2.82 µM) | MIC Enterococcus faecalis (GC 2691) (Enterococcus sp.; strain GC 2691): 4 µg/mL (≈ 2.82 µM) | MIC Enterococcus faecalis (GC 3059) (Enterococcus sp.; strain GC 3059): 8 µg/mL (≈ 5.64 µM) | MIC Enterococcus faecalis (GC 4552) (Enterococcus sp.; strain GC 4552): 4 µg/mL (≈ 2.82 µM) | MIC Enterococcus faecalis (GC 4553) (Enterococcus sp.; strain GC 4553): 4 µg/mL (≈ 2.82 µM) | MIC Enterococcus faecalis (GC 4554) (Enterococcus sp.; strain GC 4554): 8 µg/mL (≈ 5.64 µM) | MIC Enterococcus faecium (GC 4556) (Enterococcus sp.; strain GC 4556): 8 µg/mL (≈ 5.64 µM) | MIC Enterococcus faecium (GC 4557) (Enterococcus sp.; strain GC 4557): 2 µg/mL (≈ 1.41 µM) | MIC Enterococcus avium (GC 4558) (Enterococcus sp.; strain GC 4558): 4 µg/mL (≈ 2.82 µM) | MIC Enterococcus faecalis (GC 6189) (Enterococcus sp.; strain GC 6189): 4 µg/mL (≈ 2.82 µM) | MIC Escherichia coli (ATCC 25922) (Escherichia coli; strain ATCC 25922): 32 µg/mL (≈ 22.5 µM) | MIC Escherichia coli (GC 4559) (Escherichia coli; strain GC 4559): 32 µg/mL (≈ 22.5 µM) | MIC Escherichia coli (GC 4560) (Escherichia coli; strain GC 4560): 2 µg/mL (≈ 1.41 µM) | MIC Coagulase Negative Staphylococcus (GC 4547) (Staphylococcus sp.): 2 µg/mL (≈ 1.41 µM) | MIC Coagulase Negative Staphylococcus (GC 4548) (Staphylococcus sp.): 1 µg/mL (≈ 0.704 µM) | MIC Coagulase Negative Staphylococcus (GC 4549) (Staphylococcus sp.): 1 µg/mL (≈ 0.704 µM) | MIC Coagulase Negative Staphylococcus (GC 4551) (Staphylococcus sp.): 2 µg/mL (≈ 1.41 µM) | MIC Staphylococcus aureus (ATCC 29213) (Staphylococcus sp.): 2 µg/mL (≈ 1.41 µM) | MIC Staphylococcus aureus (GC 1131) (Staphylococcus sp.): 2 µg/mL (≈ 1.41 µM) | MIC Staphylococcus aureus (GC 3051) (Staphylococcus sp.): 2 µg/mL (≈ 1.41 µM) | MIC Staphylococcus aureus (GC 3053) (Staphylococcus sp.): 2 µg/mL (≈ 1.41 µM) | MIC Staphylococcus aureus (GC 4541) (Staphylococcus sp.): 2 µg/mL (≈ 1.41 µM) | MIC Staphylococcus aureus (GC 4542) (Staphylococcus sp.): 2 µg/mL (≈ 1.41 µM) | MIC Staphylococcus aureus (GC 4544) (Staphylococcus sp.): 4 µg/mL (≈ 2.82 µM) | MIC Staphylococcus aureus (GC 4545) (Staphylococcus sp.): 2 µg/mL (≈ 1.41 µM) | MIC Staphylococcus aureus-SMITH (GC 4543) (Staphylococcus sp.): 2 µg/mL (≈ 1.41 µM) | MIC Coagulase Negative Staphylococcus (GC 4547) (Staphylococcus sp.; strain GC 4547): 2 µg/mL (≈ 1.41 µM) | MIC Coagulase Negative Staphylococcus (GC 4548) (Staphylococcus sp.; strain GC 4548): 1 µg/mL (≈ 0.704 µM) | MIC Coagulase Negative Staphylococcus (GC 4549) (Staphylococcus sp.; strain GC 4549): 1 µg/mL (≈ 0.704 µM) | MIC Coagulase Negative Staphylococcus (GC 4551) (Staphylococcus sp.; strain GC 4551): 2 µg/mL (≈ 1.41 µM) | MIC Staphylococcus aureus-SMITH (GC 4543) (Staphylococcus sp.; strain SMITH GC 4543): 2 µg/mL (≈ 1.41 µM) | MIC Staphylococcus aureus (ATCC 29213) (Staphylococcus sp.; strain ATCC 29213): 2 µg/mL (≈ 1.41 µM) | MIC Staphylococcus aureus (GC 1131) (Staphylococcus sp.; strain GC 1131): 2 µg/mL (≈ 1.41 µM) | MIC Staphylococcus aureus (GC 3051) (Staphylococcus sp.; strain GC 3051): 2 µg/mL (≈ 1.41 µM) | MIC Staphylococcus aureus (GC 3053) (Staphylococcus sp.; strain GC 3053): 2 µg/mL (≈ 1.41 µM) | MIC Staphylococcus aureus (GC 4541) (Staphylococcus sp.; strain GC 4541): 2 µg/mL (≈ 1.41 µM) | MIC Staphylococcus aureus (GC 4542) (Staphylococcus sp.; strain GC 4542): 2 µg/mL (≈ 1.41 µM) | MIC Staphylococcus aureus (GC 4544) (Staphylococcus sp.; strain GC 4544): 4 µg/mL (≈ 2.82 µM) | MIC Staphylococcus aureus (GC 4545) (Staphylococcus sp.; strain GC 4545): 2 µg/mL (≈ 1.41 µM) | MIC Streptococcus agalactiae (GC 4564) (Streptococcus sp.; Streptococcus agalactiae (GC 4564)): 0.25 µg/mL (≈ 0.176 µM) | MIC Streptococcus pneumoniae (ATCC 6301) (Streptococcus sp.; Streptococcus pneumoniae (ATCC 6301)): 0.12 µg/mL (≈ 0.0845 µM) | MIC Streptococcus pneumoniae (GC 1894) (Streptococcus sp.; Streptococcus pneumoniae (GC 1894)): <0.06 µg/mL | MIC Streptococcus pneumoniae (GC 4565) (Streptococcus sp.; Streptococcus pneumoniae (GC 4565)): <0.06 µg/mL | MIC Streptococcus pyogenes (GC 4563) (Streptococcus sp.; Streptococcus pyogenes (GC 4563)): 0.25 µg/mL (≈ 0.176 µM) | MIC Streptococcus pneumoniae (ATCC 6301) (Streptococcus sp.; strain ATCC 6301): 0.12 µg/mL (≈ 0.0845 µM) | MIC Streptococcus pneumoniae (GC 1894) (Streptococcus sp.; strain GC 1894): <0.06 µg/mL | MIC Streptococcus pyogenes (GC 4563) (Streptococcus sp.; strain GC 4563): 0.25 µg/mL (≈ 0.176 µM) | MIC Streptococcus agalactiae (GC 4564) (Streptococcus sp.; strain GC 4564): 0.25 µg/mL (≈ 0.176 µM) | MIC Streptococcus pneumoniae (GC 4565) (Streptococcus sp.; strain GC 4565): <0.06 µg/mL
SMILES: N=C1NCC(C(O)C2NC(=O)C(Cc3ccc(OC4OC(CO)C(OC5OC(CO)C(O)C6OC7(OC56)C5CC6CC(C5)CC7C6)C(O)C4O)cc3)NC(=O)C(CC3CCCCC3)NC(=O)CNC(=O)C(CO)NC(=O)C(C(O)C3CNC(=N)N3C3OC(CO)C(O)C(O)C3O)NC2=O)N1 (centres unmarked) [Example 106a, Cyclo[3-cyclohexylalanyl-O-[4-O-[2,3-O-(2-adamantylidene)hexopyranosyl]hexopyranosyl]-tyrosyl-3-(2-iminoimidazolidin-4-yl)seryl-3-(3-hexopyranosyl-2-iminoimidazolidin-4-yl)-serylserylglycyl]]
MIC Staphylococcus haemolyticus (GC 4546) (Staphylococcus sp.): 2 µg/mL (≈ 1.41 µM) | MIC Staphylococcus haemolyticus (GC 4546) (Staphylococcus sp.; strain GC 4546): 2 µg/mL (≈ 1.41 µM)

Reference: patent publication US6914045B2, “Glycopeptide antibiotics” (Wyeth Holdings Corporation, priority 2001, dated 2005)
